Source: US8530650B2, “2, 5-diamino-substituted pyrido [4, 3-D] pyrimidines as autotaxin inhibitors against cancer” (MERCK PATENT GmbH, priority 2008, dated 2013)

molecular target: T1, recombinant autotaxin (Homo sapiens, UniProt Q13822); assay: Autotaxin assay (Amplex Red, LPC substrate); assay type: biochemical; settings: 75 μM LPC, Amplex Red fluorescence, ten 1:3 dilutions starting at 30 μM
T1 construct: made in house; host or cells: Hi5 insect cells (baculovirus)
Outline: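 Baculovirus (Hi5)-expressed autotaxin (16 ng) was preincubated with compound 30 min at 22° C., then reacted with 75 μM final egg LPC for 90 min at 37° C.; choline released was coupled via choline oxidase/peroxidase to Amplex Red, fluorescence read kinetically (ex 485/em 612 nm). IC50 from 10-point 1:3 dilutions from 30 μM, duplicates, normalized to 500 μM C14 LPA as 0%.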

Row | SMILES | IC50 [µM]
1 | Clc1ccccc1CNc1ncc2c(NCCc3cccnc3)nccc2n1 [Compound 147, N2-(2-Chloro-benzyl)-N5-(2-pyridin-3-yl-ethyl)-pyrido[4,3-d]pyrimidine-2,5-diamine] | < 30
2 | Clc1ccccc1CNc1ncc2c(NCCc3ccncc3)nccc2n1 [Compound 148, N2-(2-Chloro-benzyl)-N5-(2-pyridin-4-yl-ethyl)-pyrido[4,3-d]pyrimidine-2,5-diamine] | < 30
3 | O=C(OCc1cccnc1)N1CCN(c2nccc3nc(NCc4ccccc4Cl)ncc23)CC1 [Compound 151, 4-[2-(2-Chloro-benzylamino)-pyrido[4,3-d]pyrimidin-5-yl]-piperazine-1-carboxylic acid pyridin-3-ylmethyl ester] | < 30
4 | CS(=O)(=O)CS(=O)(=O)N1CCN(c2nccc3nc(NCc4ccccc4Cl)ncc23)CC1 [Compound 156, (2-Chloro-benzyl)-[5-(4-methanesulfonylmethanesulfonyl-piperazin-1-yl)-pyrido[4,3-d]pyrimidin-2-yl]-amine] | < 30

The next lines start with the values.

Row | IC50 [µM] | SMILES
5 | < 10 | O=C(O)CN1CCN(c2nccc3nc(NCc4ccccc4Cl)ncc23)CC1 [Compound 145, {4-[2-(2-Chloro-benzylamino)-pyrido[4,3-d]pyrimidin-5-yl]-piperazin-1-yl}-acetic acid]
6 | < 30 | Clc1ccccc1CNc1ncc2c(NCCc3ccccn3)nccc2n1 [Compound 146, N2-(2-Chloro-benzyl)-N5-(2-pyridin-2-yl-ethyl)-pyrido[4,3-d]pyrimidine-2,5-diamine]
